# Reference: PubChem BioAssay (NCI)
# Values joined by “and” are separate entries in the source; they are usually repeats but may differ in a detail not shown here. Equal values may be shown once.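 Interpolation was linear, between the two tested concentrations surrounding the appropriate level; five concentrations were tested over 48 hours in 96-well plates. GI50 = concentration required for 50% inhibition of growth. TGI: total growth inhibition.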
# Assays:
# Assay in all cases: NCI tumour cell line growth inhibition, 48 h
# [1] = test system: HCT-15 colon
# [2] = test system: HL-60(TB) leukemia
# [3] = test system: K-562 leukemia
# [4] = test system: M14 melanoma
# [5] = test system: NCI-H23 lung
# [6] = test system: OVCAR-4 ovarian
# [7] = test system: RPMI-8226 leukemia
# [8] = test system: SK-MEL-2 melanoma
# [9] = test system: SK-MEL-28 melanoma
# [10] = test system: SN12C renal
# [11] = test system: SNB-75 CNS
# [12] = test system: TK-10 renal
# [13] = test system: MDA-MB-231 breast
# [14] = test system: MDA-MB-435
Compound,TGI [1] [µM],TGI [2],TGI [3] [µM],TGI [4] [µM],TGI [5] [µM],TGI [6] [µM],TGI [7] [µM],TGI [8],TGI [9] [µM],TGI [10] [µM],TGI [11] [µM],TGI [12] [µM],TGI [13] [µM],TGI [14] [µM],GI50 [1] [µM],GI50 [2] [µM],GI50 [6] [µM],GI50 [7] [µM],GI50 [8] [µM],GI50 [10] [µM]
Cc1ccc2[nH]c3c(C)c4ccncc4c(C)c3c2c1,2.22,3.42 µM,2.52,3.29,2.98,2.56,4.88,2.63 µM,3.47,2.39,3.17,14.2,–,–,–,–,–,–,–,–
CNC(=O)CN1CC(=O)N(C)C(=O)C1,> 100,> 100 µM,> 100,> 100,> 100,> 100,> 100,> 100 µM,> 100,–,> 100,> 100,–,–,–,–,–,–,–,–
Cc1cc(=Nc2ccc3c(c2)c(N)cc(C)[n+]3C)nc(N)n1C,> 100,–,> 100,> 100,> 100,> 100,> 100,> 100 µM,> 100,> 100,> 100,> 100,> 100,> 100,–,–,–,–,–,–
O=C1c2ccccc2C(=O)N1c1ccc(OCCN2CCCCC2)cc1,> 100,> 100 µM,> 100,> 100,> 100,> 100,> 100,> 100 µM,> 100,> 100,–,> 100,> 100,> 100,–,–,–,–,–,–
c1ccc(-c2cc(-c3cc(-c4ccccc4)n(-c4ccccc4)n3)nn2-c2ccccc2)cc1,> 100,–,> 100,> 100,> 100,> 100,–,> 100 µM,–,> 100,> 100,> 100,> 100,> 100,–,–,–,–,–,–
N#Cc1c(-c2ccc(Cl)cc2)c(C#N)c(=O)n(NS(=O)(=O)c2ccccc2)c1-c1ccccc1,> 25,> 25 µM,> 25,> 25,–,> 25,> 25,> 25 µM,> 25,> 25,–,> 25,> 25,> 25,–,–,–,–,–,–
C[C@@H]1CCC2[C@@H](C)C(=O)O[C@@H]3C4C[C@@H]1[C@@]23OO[C@@]4(C)O (stereo partly specified),> 100,–,> 100,> 100,> 100,> 100,> 100,> 100 µM,> 100,> 100,> 100,> 100,> 100,> 100,–,–,–,–,–,–
CCCCCCCCCN1CCC(=O)C(C(=O)OC)C1 (stereo unspecified),26.9,10.9 µM,–,29.2,8.59,12.4,49.1,–,–,29.5,34,31.4,–,28.5,–,–,–,–,–,–
CSCCC(NC(c1ccccc1)c1ccccc1)[P+](=O)O (stereo unspecified),> 100,> 100 µM,> 100,> 100,> 100,> 100,> 100,> 100 µM,> 100,> 100,> 100,> 100,–,> 100,–,–,–,–,–,–
Nc1ccn(C2OC(COP(=O)(O)Oc3ccccc3)C(O)C2O)c(=O)n1 (stereo unspecified),> 100,> 100 µM,> 100,–,> 100,> 100,> 100,> 100 µM,> 100,> 100,> 100,–,–,–,–,–,–,–,–,–
CC(=O)Oc1c(OC(C)=O)c(-c2ccc(O)c(O)c2)c(O)c(O)c1-c1ccc(O)cc1,> 100,52.6 µM and > 100 µM,> 100,–,> 100,> 100,> 100,> 100 µM and 92 µM,> 100,> 100,> 100,–,–,–,76.3,19,59,20,56.5,73.8
COc1cc2c(cc1OC)C(Cl)C(c1cc(OC)c(OC)c(OC)c1)=C2Cl (stereo unspecified),49.4,44.3 µM,> 100,35.2,51.8,–,37,34.1 µM,31.9,36.6,18.1,62.2,–,–,–,–,–,–,–,–
CN1OC(=O)N(C)C1c1ccccc1 (stereo unspecified),> 100,> 100 µM,> 100,–,> 100,> 100,> 100,> 100 µM,> 100,> 100,> 100,–,–,–,–,–,–,–,–,–
CC(C)(C)C=C=C(C(C)(C)C)P(=O)(O)O,> 100,> 100 µM,> 100,> 100,> 100,> 100,> 100,> 100 µM,> 100,> 100,> 100,> 100,–,> 100,–,–,–,–,–,–
O=C(/C=C/c1ccc(O)c(O)c1)OCCOC(=O)/C=C/c1ccc(O)c(O)c1,> 100,–,63.2,28.5,> 100,> 100,> 100,45.8 µM,> 100,65.1,–,> 100,> 100,98,–,–,–,–,–,–
CCN(CC)CCNc1ccc(C)c2sc3ccc(O)cc3c(=O)c12,2.72,0.979 µM,3.62,2.48,14,6.12,4.95,3.24 µM,2.96,1.85,4.3,9.95,–,–,–,–,–,–,–,–
C[C@@H]1OC(=O)C[C@H]2CC(=O)N(CCc3cn(S(=O)(=O)C(F)(F)F)c4ccccc34)C[C@@H]21,> 100,–,> 100,> 100,> 100,> 100,> 100,> 100 µM,> 100,–,> 100,> 100,> 100,> 100,–,–,–,–,–,–
COc1cc(CC2c3cc(OC)c(OC)cc3CCN2C)c(Oc2cc3c(cc2OC)-c2c(OC)c(OC)c(OC)c4c2C(C3)N(C)CC4)cc1OC (stereo unspecified),23.4,> 100 µM,> 30.5,5.76,34.9,33.1,> 45.7,28.8 µM,22.8,28.6,25,29.5,–,–,–,–,–,–,–,–
